# Reference: ChEMBL document CHEMBL1159200, “A new flavonol glycoside gallate ester from Acer okamotoanum and its inhibitory activity against human immunodeficiency virus-1 (HIV-1) integrase” (J Nat Prod, 1998)
# Molecular target: Human immunodeficiency virus type 1 integrase (Human immunodeficiency virus 1, UniProt Q7ZJM1)
# Assay: Inhibition of HIV1 recombinant integrase expressed in Escherichia coli
# Sequence of Human immunodeficiency virus type 1 integrase (Q7ZJM1 whole entry): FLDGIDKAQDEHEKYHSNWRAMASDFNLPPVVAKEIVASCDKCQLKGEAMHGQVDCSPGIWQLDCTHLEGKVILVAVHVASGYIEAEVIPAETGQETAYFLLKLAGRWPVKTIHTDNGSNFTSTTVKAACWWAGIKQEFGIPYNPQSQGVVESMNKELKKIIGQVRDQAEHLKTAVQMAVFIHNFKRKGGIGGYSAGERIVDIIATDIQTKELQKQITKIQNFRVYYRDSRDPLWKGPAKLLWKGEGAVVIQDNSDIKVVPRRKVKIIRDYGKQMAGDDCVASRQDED
row,SMILES,IC50 [µM]
1,O=C(OC[C@H]1O[C@@H](Oc2c(-c3ccc(O)c(O)c3)oc3cc(O)cc(O)c3c2=O)[C@H](OC(=O)c2cc(O)c(O)c(O)c2)[C@@H](O)[C@H]1O)c1cc(O)c(O)c(O)c1,31.5
2,O=C(OC[C@H]1O[C@@H](OC(=O)c2cc(O)c(O)c(O)c2)[C@H](OC(=O)c2cc(O)c(O)c(O)c2)[C@@H](O)[C@@H]1O)c1cc(O)c(O)c(O)c1,44.5
3,O=C(O[C@H]1[C@H](Oc2c(-c3ccc(O)c(O)c3)oc3cc(O)cc(O)c3c2=O)OC[C@H](O)[C@@H]1O)c1cc(O)c(O)c(O)c1,30.9
4,COC(=O)c1cc(O)c(O)c(O)c1 [GALLIC ACID METHYL ESTER],155
5,O=C(OC[C@H]1O[C@@H](OC(=O)c2cc(O)c(O)c(O)c2)[C@H](OC(=O)c2cc(O)c(O)c(O)c2)[C@@H](OC(=O)c2cc(O)c(O)c(O)c2)[C@@H]1OC(=O)c1cc(O)c(O)c(O)c1)c1cc(O)c(O)c(O)c1 [PENTAGALLOYL GLUCOSE],29.8
6,C[C@@H]1O[C@@H](Oc2c(-c3ccc(O)c(O)c3)oc3cc(O)cc(O)c3c2=O)[C@H](O)[C@H](O)[C@H]1O [QUERCITRIN],168

# More lines, now with the values ahead:
row,IC50 [µM],SMILES
1,45.3,O=C(O[C@H]1[C@H](Oc2c(-c3ccc(O)c(O)c3)oc3cc(O)cc(O)c3c2=O)O[C@H](CO)[C@H](O)[C@@H]1O)c1cc(O)c(O)c(O)c1
2,> 239,O=c1c(O[C@@H]2OC[C@H](O)[C@H](O)[C@H]2O)c(-c2ccc(O)cc2)oc2cc(O)cc(O)c12
3,139,O=c1c(O[C@@H]2O[C@H](CO)[C@H](O)[C@H](O)[C@H]2O)c(-c2ccc(O)c(O)c2)oc2cc(O)cc(O)c12 [HYPEROSIDE]
